Test results taken from patent publication US11685762B2, “Aqueous suspension compositions, formulations, and water dispersible dry compositions comprising 16alpha-bromo-3beta-hydroxy-5alpha-androstan-17-ketone and hydrates, derivatives, and analogs thereof” (SD Chem, Inc., priority 2019, dated 2023).
Marks after values point to notes of the source that are not given here.

Columns and labels:
[1] = test system: Entamoeba histolytica; conditions: hamsters; cited from earlier work
[2] = test system: Taenia crassiceps; conditions: mice, administration prior to infection with cysticerci; cited from earlier work
[3] = test system: BALB/c male mice sensitized and challenged with OVA; assay: Mouse asthma model (OVA challenge, bronchioalveolar lavage cell count); format: in vivo; conditions: 0.2 mg/kg per day
Description: In this experiment, the BEA formulation is prepared based present invention formulation (Formulation of Composition 1 in Example 1).
18 BALB/c male mice, 8 weeks old are sensitized with two intraperitoneal (IP) administrations, 5 days apart, of 10 μg chicken egg ovalbumin (OVA, grade V; Sigma) emulsified in 1 mg of aluminum hydroxide (Thermo Scientific, Rockford, Ill., USA) in a total volume of 100 μl. Then, after one month mice are challenged via intratracheal (IT) administration of 0.75% OVA. BEA formulation is administered at 0.2 mg/kg dose in an injection volume of 0.1 mL in two different routes of administration (intratracheal and subcutaneous (SC)), one hour after the OVA challenge and one dose per day for up to 7 days. Then, animals are euthanized by exsanguination under pentobarbital anesthesia. The bronchioalveolar lavage (BAL) of the mice are used to determine the total counts of inflammatory cells. Control mice receive saline solution intraperitoneally (IP). All experiments are performed in accordance with INCMN Mexico City regulations. Two independent experiments are performed.

[4] = test system: Vk*MYC Mice; assay: Anti-myeloma activity in Vk*MYC mice (M-Spike); conditions: 15 mg/kg/day
Description: 3 Vk*MYC Mice are evaluated. […] The M-Spike value are assessed at day 7 and 14 respectively. […] The M-Spike value are assessed at day 7, 14 and 21 respectively.

[5] = test system: ICR mice with colitis induced by DSS; assay: DSS induced mouse colitis model; format: in vivo; conditions: for White blood cell count: Mean ± SD, n = 12; for Macrohage cell count: abdominal macrophages
Description: Experimental animals: 72 ICR mice, male and female, 25-29 g body weight before starting the experiment.
Subgrouping: The experimental animals are divided into 6 groups at random, 12 mice in each group: physiological saline group, high dose group (40 mg/kg), moderate dose group (20 mg/kg), low dose group (10 mg/kg) of BEA obtained in Formulation/Composition 1 of the present invention, Dexamethasone (0.1 mg/kg), DSS model group.
Model replication: The experimental mice are […] 3% DSS and fed with water routinely for 7 days, the colitis model is duplicated.
Administration of drug: the mice are injected with the test drug on the same day when DSS are injected.
Experimental animal management: the general physical condition, loose stools, and bloody stools are observed every day.
The fecal occult blood is tested 3 days after injected with drug. The blood tests are done on day 7. The macrophages are counted and their IL-6 and TNF-alpha are determined. Their inflammation and ulcer level are observed. The colon content is taken to smear, stain and then determined the G+/G−. The thymus, spleen, liver are taken to weight and calculate the organ index. Sections of colon are sent for pathological examination.

Q: What does the source list for `C[C@]12CC[C@H](O)C[C@@H]1CC[C@@H]1[C@@H]2CC[C@]2(C)C(=O)[C@H](Br)C[C@@H]12` [BEA, 16alpha-bromo-3beta-hydroxy-5alpha-androstan-17-ketone]?
A: reduction on the development of amoebic liver abscesses [1]: 20%; reduction of parasite load compared with controls [2]: 50%; Inflammatory Cell Number in bronchioalveolar lavage ([3]; IT, Day 3): 4.61 × 10^4; Inflammatory Cell Number in bronchioalveolar lavage ([3]; IT, Day 7): 5.99 × 10^4; Inflammatory Cell Number in bronchioalveolar lavage ([3]; SC, Day 3): 4.07 × 10^4; Inflammatory Cell Number in bronchioalveolar lavage ([3]; SC, Day 7): 1.06 × 10^5; reduction of M-Spike [4]: 40%; Final weight ([5]; BEA 10 mg/kg): 26.5 ± 2.6 g; IL-6/TNF-alpha ([5]; BEA 10 mg/kg): 9.5 ± 7.9; IL-6 level ([5]; BEA 10 mg/kg): 551.7 ± 391.4 pg/mL; Spleen index ([5]; BEA 10 mg/kg): 5.7 ± 2.0 mg/g; TNFa level ([5]; BEA 10 mg/kg): 49.5 ± 23.2 pg/mL; The length of colon ([5]; BEA 10 mg/kg): 10.4 ± 1.0 cm; Thymus index ([5]; BEA 10 mg/kg): 2.7 ± 1.0 mg/g; Weight before fasting ([5]; BEA 10 mg/kg): 28.2 ± 2.8 g; number of animals with bloody stools ([5]; BEA 10 mg/kg): 5/12; number of animals with fecal occult blood (3rd day) ([5]; BEA 10 mg/kg): 7/12; White blood cell count ([5]; BEA 10 mg/kg): 5.9 ± 1.4 X10^9; Macrohage cell count ([5]; BEA 10 mg/kg): 28.3 ± 8.9 X10^5; Final weight ([5]; BEA 20 mg/kg): 25.7 ± 1.8 g; IL-6/TNF-alpha ([5]; BEA 20 mg/kg): 16.8 ± 8.0; IL-6 level ([5]; BEA 20 mg/kg): 589.1 ± 227.1 pg/mL; Spleen index ([5]; BEA 20 mg/kg): 5.9 ± 1.0 mg/g; TNFa level ([5]; BEA 20 mg/kg): 49.1 ± 37.0 pg/mL; The length of colon ([5]; BEA 20 mg/kg): 10.5 ± 0.9 cm; Thymus index ([5]; BEA 20 mg/kg): 2.9 ± 0.7 mg/g; Weight before fasting ([5]; BEA 20 mg/kg): 27.7 ± 2.5 g; number of animals with bloody stools ([5]; BEA 20 mg/kg): 5/12; number of animals with fecal occult blood (3rd day) ([5]; BEA 20 mg/kg): 7/12; White blood cell count ([5]; BEA 20 mg/kg): 5.2 ± 1.5# X10^9; Macrohage cell count ([5]; BEA 20 mg/kg): 32.3 ± 1.3# X10^5; Final weight ([5]; BEA 40 mg/kg): 25.6 ± 1.7 g; IL-6/TNF-alpha ([5]; BEA 40 mg/kg): 12.7 ± 8.6; IL-6 level ([5]; BEA 40 mg/kg): 370.8 ± 219.1 pg/mL; Spleen index ([5]; BEA 40 mg/kg): 6.4 ± 1.2 mg/g; TNFa level ([5]; BEA 40 mg/kg): 31.4 ± 15.1 pg/mL; The length of colon ([5]; BEA 40 mg/kg): 9.2 ± 0.8 cm; Thymus index ([5]; BEA 40 mg/kg): 3.1 ± 0.7 mg/g; Weight before fasting ([5]; BEA 40 mg/kg): 27.6 ± 1.7 g; number of animals with bloody stools ([5]; BEA 40 mg/kg): 6/12; number of animals with fecal occult blood (3rd day) ([5]; BEA 40 mg/kg): 6/12; White blood cell count ([5]; BEA 40 mg/kg): 5.9 ± 2.9 X10^9; Macrohage cell count ([5]; BEA 40 mg/kg): 24.6 ± 3.4 X10^5

Q: Which results are given for `C[C@@H]1C[C@H]2[C@@H]3CCC4=CC(=O)C=C[C@]4(C)[C@@]3(F)[C@@H](O)C[C@]2(C)[C@@]1(O)C(=O)CO` [Dex, Dexamethasone, reference compound]?
A: IL-6/TNF-alpha ([5]; Dexamethasone 0.1 mg/kg): 15.8 ± 8.7; IL-6 level ([5]; Dexamethasone 0.1 mg/kg): 791.7 ± 234.3 pg/mL; Spleen index ([5]; Dexamethasone 0.1 mg/kg): 7.9 ± 1.7 mg/g; TNFa level ([5]; Dexamethasone 0.1 mg/kg): 92.4 ± 42.1 pg/mL; The length of colon ([5]; Dexamethasone 0.1 mg/kg): 9.9 ± 1.2 cm; Thymus index ([5]; Dexamethasone 0.1 mg/kg): 0.9 ± 0.4 mg/g; number of animals with bloody stools ([5]; Dexamethasone 0.1 mg/kg): 8/12; number of animals with fecal occult blood (3rd day) ([5]; Dexamethasone 0.1 mg/kg): 9/12; White blood cell count ([5]; Dexamethasone 0.1 mg/kg): 5.0 ± 2.6# X10^9; Macrohage cell count ([5]; Dexamethasone 0.1 mg/kg): 24.4 ± 5.7 X10^5
